The IC50 is the concentration at which inhibition is half-maximal.

Some results are limits rather than exact numbers.

The test system of this assay is IRF pathway in THP1-Dual™ cells, THP-1 (HAQ). The assay can be described thus: Reporter gene expression assay in THP-1 cells (THP1-Dual, IRF pathway Lucia luciferase reporter, 2′,3′-cGAMP stimulation). The format is cell-based, human. The following applies: Homo sapiens; THP1-Dual cells preincubated with compound 10 minutes, stimulation with 5 μM 2′,3′-cGAMP for 20 hr, QUANTI-Luc readout of the supernatant; read-out: THP-1 (HAQ) Activity (IC50 value range). The method, boiled down:
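THP-1-derived THP1-Dual cells (5×10^4) preincubated with compound for 10 minutes, then stimulated with 5 μM 2′,3′-cGAMP. After 20 hr, secreted Lucia luciferase (IRF pathway reporter) measured in supernatant by luminescence.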

For `CC1Sc2ccc(NC(=O)Nc3c[nH]c4ccc(F)cc34)cc2N(Cc2cc(F)cc(F)c2)C1=O` (stereo not drawn) [Example 31, 1-(4-(3,5-difluorobenzyl)-2-methyl-3-oxo-3,4-dihydro-2H-benzo[b][1,4]thiazin-6-yl)-3-(5-fluoro-1H-indol-3-yl)urea], the IC50 is less than 1 µM.

With `O=C(Nc1ccc2c(c1)N(Cc1ccccc1)C(=O)CS2)Nc1c[nH]c2ccc(Cl)cc12` [Example 10, 1-(4-benzyl-3-oxo-3,4-dihydro-2H-benzo[b][1,4]thiazin-6-yl)-3-(5-chloro-1H-indol-3-yl)urea], the IC50 was less than 1 µM.

Regarding `CC1CN(Cc2ccccc2)c2ccc(NC(=O)Nc3c[nH]c4ccccc34)cc2S1` (stereo not drawn) [Example 85, 1-(4-benzyl-2-methyl-3,4-dihydro-2H-benzo[b][1,4]thiazin-7-yl)-3-(1H-indol-3-yl)urea], the IC50 is less than 1 µM.

In the case of `O=C(Nc1ccc2c(c1)N(Cc1ccccc1)C(=O)CS2)Nc1c[nH]c2ncc(Cl)cc12` [Example 5, 1-(4-benzyl-3-oxo-3,4-dihydro-2H-benzo[b][1,4]thiazin-6-yl)-3-(5-chloro-1H-pyrrolo[2,3-b]pyridin-3-yl)urea], the IC50 is less than 1 µM.

Consider `O=C(Nc1ccc2c(c1)N(Cc1ccccc1)CCS2)Nc1c[nH]c2cc(F)ccc12` [Example 98, 1-(4-benzyl-3,4-dihydro-2H-benzo[b][1,4]thiazin-6-yl)-3-(6-fluoro-1H-indol-3-yl)urea], for which the IC50 is less than 1 µM.

Regarding `Cc1cccc(F)c1CN1CCSc2cc(NC(=O)Nc3c[nH]c4ccccc34)ccc21` [Example 82, 1-(4-(2-fluoro-6-methylbenzyl)-3,4-dihydro-2H-benzo[b][1,4]thiazin-7-yl)-3-(1H-indol-3-yl)urea], the IC50 was less than 1 µM.

Take `O=C(Nc1ccc2c(c1)SCCN2Cc1c(F)cccc1F)Nc1c[nH]c2ccccc12` [Example 81, 1-(4-(2,6-difluorobenzyl)-3,4-dihydro-2H-benzo[b][1,4]thiazin-7-yl)-3-(1H-indol-3-yl)urea]: the IC50 was less than 1 µM.

For `O=C(Nc1ccc2c(c1)N(Cc1ccccc1)C(=O)CS2)Nc1c[nH]c2ccc(-c3cnn(CCO)c3)cc12` [Example 46, 1-(4-benzyl-3-oxo-3,4-dihydro-2H-benzo[b][1,4]thiazin-6-yl)-3-(5-(1-(2-hydroxyethyl)-1H-pyrazol-4-yl)-1H-indol-3-yl)urea], the IC50 lay in the range of 1 to 10 µM.

As for `O=C(Nc1ccc2c(c1)N(Cc1ccccc1)C(=O)CS2)Nc1c[nH]c2ccc(-c3ccc(O)nc3)cc12` [Example 63, 1-(4-benzyl-3-oxo-3,4-dihydro-2H-benzo[b][1,4]thiazin-6-yl)-3-(5-(6-hydroxypyridin-3-yl)-1H-indol-3-yl)urea], the IC50 is 1 to 10 µM.

Consider `O=C(Nc1ccc2c(c1)N(Cc1c(F)ccc(O)c1Cl)C(=O)CS2)Nc1c[nH]c2ccccc12` [Example 34, 1-(4-(2-chloro-6-fluoro-3-hydroxybenzyl)-3-oxo-3,4-dihydro-2H-benzo[b][1,4]thiazin-6-yl)-3-(1H-indol-3-yl)urea], for which the IC50 was less than 1 µM.

As to `NC(=O)c1ccc(CN2C(=O)CSc3ccc(NC(=O)Nc4c[nH]c5ccccc45)cc32)cc1` [Example 23, 4-((6-(3-(1H-indol-3-yl)ureido)-3-oxo-2,3-dihydro-4H-benzo[b][1,4]thiazin-4-yl)methyl)benzamide], the IC50 fell in the range of 1 to 10 µM.

On to `O=C(Nc1ccc2c(c1)N(Cc1ccccc1)C(=O)CS2)Nc1c[nH]c2ccc(-c3cn[nH]c3)cc12` [Example 44, 1-(5-(1H-pyrazol-4-yl)-1H-indol-3-yl)-3-(4-benzyl-3-oxo-3,4-dihydro-2H-benzo[b][1,4]thiazin-6-yl)urea], for which the IC50 was in the range of 1 to 10 µM.

In the case of `CC1CN(Cc2ccccc2)c2cc(NC(=O)Nc3c[nH]c4ccccc34)ccc2S1` (stereo not drawn) [Example 83, 1-(4-benzyl-2-methyl-3,4-dihydro-2H-benzo[b][1,4]thiazin-6-yl)-3-(1H-indol-3-yl)urea], the half-inhibitory concentration (IC50) is less than 1 µM.

As for `O=C(Nc1ccc2c(c1)N(Cc1ccccc1)C(=O)CS2)Nc1c[nH]c2ccc(Br)cc12` [Example 112, 1-(4-benzyl-3-oxo-3,4-dihydro-2H-benzo[b][1,4]thiazin-6-yl)-3-(5-bromo-1H-indol-3-yl)urea], the IC50 is less than 1 µM.

In the case of `O=C(Nc1ccc2c(c1)N(Cc1ccccc1)C(=O)CS2)Nc1c[nH]c2ccc(-c3cnoc3)cc12` [Example 66, 1-(4-benzyl-3-oxo-3,4-dihydro-2H-benzo[b][1,4]thiazin-6-yl)-3-(5-(isoxazol-4-yl)-1H-indol-3-yl)urea], the IC50 was less than 1 µM.

Consider `O=C(Nc1ccc2c(c1)N(Cc1cccnc1)C(=O)CS2)Nc1c[nH]c2ccccc12` [Example 24, 1-(1H-indol-3-yl)-3-(3-oxo-4-(pyridin-3-ylmethyl)-3,4-dihydro-2H-benzo[b][1,4]thiazin-6-yl)urea], for which the IC50 lay within 1 to 10 µM.

As for `O=C(Nc1ccc2c(c1)N(Cc1ccccc1)C(=O)CS2)Nc1c[nH]c2ncccc12` [Example 13, 1-(4-benzyl-3-oxo-3,4-dihydro-2H-benzo[b][1,4]thiazin-6-yl)-3-(1H-pyrrolo[2,3-b]pyridin-3-yl)urea], the IC50 is less than 1 µM.

For `O=C(Nc1ccc2c(c1)N(Cc1ccccc1)C(=O)CO2)Nc1c[nH]c2ccccc12` [Example 4, 1-(4-benzyl-3-oxo-3,4-dihydro-2H-benzo[b][1,4]oxazin-6-yl)-3-(1H-indol-3-yl)urea], the IC50 is less than 1 µM.

On to `O=C(Nc1ccc2c(c1)N(Cc1ccccc1)CCS2)Nc1c[nH]c2ncc(F)cc12` [Example 100, 1-(4-benzyl-3,4-dihydro-2H-benzo[b][1,4]thiazin-6-yl)-3-(5-fluoro-1H-pyrrolo[2,3-b]pyridin-3-yl)urea], for which the IC50 was less than 1 µM.

Regarding `O=C(Nc1ccc2c(c1)N(Cc1ccccc1)C(=O)CS2)Nc1c[nH]c2ccc(-c3cncs3)cc12` [Example 64, 1-(4-benzyl-3-oxo-3,4-dihydro-2H-benzo[b][1,4]thiazin-6-yl)-3-(5-(thiazol-5-yl)-1H-indol-3-yl)urea], the IC50 was less than 1 µM.

For the compound `COc1ccc(F)c(CN2C(=O)CSc3ccc(NC(=O)Nc4c[nH]c5ccccc45)cc32)c1Cl` [Example 25, 1-(4-(2-chloro-6-fluoro-3-methoxybenzyl)-3-oxo-3,4-dihydro-2H-benzo[b][1,4]thiazin-6-yl)-3-(1H-indol-3-yl)urea], the IC50 is less than 1 µM.

On to `CC1CN(Cc2ccccc2)c2cc(NC(=O)Nc3c[nH]c4ccc(F)cc34)ccc2S1` (stereo not drawn) [Example 97, 1-(4-benzyl-2-methyl-3,4-dihydro-2H-benzo[b][1,4]thiazin-6-yl)-3-(5-fluoro-1H-indol-3-yl)urea], for which the IC50 is less than 1 µM.

With `O=C(Nc1ccc2c(c1)N(Cc1cc(F)cc(F)c1)CCO2)Nc1c[nH]c2ccccc12` [Example 90, 1-(4-(3,5-difluorobenzyl)-3,4-dihydro-2H-benzo[b][1,4]oxazin-6-yl)-3-(1H-indol-3-yl)urea], the IC50 was less than 1 µM.

On to `O=C(Nc1ccc2c(c1)N(Cc1ccccc1)C(=O)CS2)Nc1c[nH]c2ccc(-c3ccncc3)cc12` [Example 51, 1-(4-benzyl-3-oxo-3,4-dihydro-2H-benzo[b][1,4]thiazin-6-yl)-3-(5-(pyridin-4-yl)-1H-indol-3-yl)urea], for which the IC50 is less than 1 µM.
